Consider three compounds from patent US11647737B2, “Genetically modified rabbit expressing an exogenous protein in milk” (APPLIED STEMCELL, INC., priority 2016, dated 2023).

Series [1] concerns beta-casein locus in rabbit embryos. Nature of the series: td-Tomato knock-in efficiency at the beta-casein locus in rabbit embryos. It counts as cell-based. Particulars: RS-1 7.5 μM; control 8.3%; P<0.05. The protocol: A mixture containing 100 ng/μl donor DNA, 100 ng/μl Cas9 mRNA and 6 ng/μl sgRNA were used for cytoplasm microinjection. Embryos were subsequently cultured to blastocyst stages, genomic DNA extracted, and subjected to PCR using primer sets described in FIG. 4. Embryos that are positive containing the desired band size for both primer sets LF1/LR1 and RF1/RR1 are considered putative knock-in.

Series [2] deals with ROSA26 like locus (RLL) in rabbit embryos. The conditions noted are these: for knock-in rate: 20 h, control 4.8%.
Description: We first tested the effects of SCR7 and RS-1 on Cas9 mediated HDR at a ROSA26 like locus (RLL) in the rabbit genome (FIG. 6). Donor template DNAs were co-microinjected with Cas9 mRNA and sgRNA for RLL locus. After injection, the embryos were treated for 20 h in a serial concentration of SCR7: 0 μM (control), 20 μM, 40 μM, and 80 μM, or in RS-1 at 0 μM (control), 7.5 μM, and 15 μM.
A further series concerns β-casein (rbCSN2). Nature of the series: In vitro validation of sgRNAs in microinjected rabbit embryos (PCR and sequencing of blastocysts), β-casein. The conditions noted are these: 100 ng/μl Cas9 mRNA and 6 ng/μl sgRNA. It counts as cell-based. The procedure: All animal maintenance, care and use procedures were reviewed and approved by the University Committee on the Use and Care of Animals (UCUCA) of the University of Michigan. Embryos were harvested from superovulated embryo donor female rabbits as previously described. Microinjection was performed on embryos 19-21 h post insemination using a micromanipulator under the inverted microscope equipped with a differential interference contrast (DIC) device. A mixture containing 100 ng/μl Cas9 mRNA and 6 ng/μl sgRNA were used for cytoplasmic microinjection. The injected embryos were washed and cultured in vitro for 3-4 days until they reached blastocyst stage.
Blastocyst stage embryos were lysed individually and genomic DNA extracted. To get better PCR reaction, the whole genome was replicated using a REPLI-g® Mini Kit (Qiagen, Germantown, Md.) following the manufacturer's protocol with slight modification. PCR products using primer set LF1/RR1 were purified and sequenced for detection of indel mutations proximate to the sgRNA target sequence (FIG. 4). On the chromatographic curves, peaks on peaks approximate the targeting site indicate an indel event. Mutation Surveyor (Softgenetics, State College, Pa.) was used to analyze sequencing results.
In total, we performed microinjection to 102 pronuclear stage embryos with sgRNA#3 targeting β-casein (rbCSN2) (see Table 1). […]

Read-outs that look alike come from different tables or passages of the source.

Take `O=C(Nc1ccc(Br)cc1)c1ccc(Br)c(S(=O)(=O)NCc2ccccc2)c1` [RS-1]: in series [1], the “% KI (knock-in rate)” value is listed as 28.9%. The knock-in rate in series [2] (RS-1 7.5 μM) is given as 26.1%; in series [2] (RS-1 15 μM), 5.4%.
Turning to `O=c1[nH]c(=S)[nH]c(N=Cc2ccccc2)c1N=Cc1ccccc1` [SCR7], in series [2] (embryos treated 20 h with SCR7 20 μM, 40 μM, 80 μM, control 7.1%), the overall knock-in efficiency was 7.7-9.4%. The “effect on overall knock-in efficiency” value in series [2] (embryos treated 20 h with SCR7 20-80 μM vs control) is listed as “no significant effects”.
For “sgRNA#3: sgRNA targeting rabbit β-Casein intron 1, GGATATCATGTTAGAGTGCCTGG (SEQ ID NO: 1) (listed as DNA, chemistry not given here; the letters are possibly those of the target site)”, in the series on β-casein (rbCSN2), the “Bi-allelic mutations (%)” value is 36%. The “blastocysts with insertions or deletions at or proximate the targeted cleavage site (#mutated, %)” value in the series on β-casein (rbCSN2) (56 blastocysts sequenced) was found to be 63%.
